Measurements taken from patent US20210386722A1, “Treatment of Covid-19 with Nitroxides” (priority 2021, published 2021).

How the values were obtained:
SARS-COV-2 [1] = conditions: in vivo; cited from earlier work
[2] = system: nonrespiratory coronavirus; conditions: mouse, in vivo; cited from earlier work
SARS-COV-2 [3] = assay: Person on Tempol heavily exposed to patient 1; format: in vivo, human; conditions: Tempol 60 mg/day
Text: By days 5-7 remaining symptoms were mild reversible-on-treatment nasal congestion, pharyngitis, and malaise. […] PCR for SARS-COV-2 RNA was negative at day 10. While not surprising considering the clinical course, in retrospect, this may have signified some direct antiviral effect of the application of Tempol directly to the upper respiratory mucosa and oropharynx by insufflation, inhalation, or gargling. […] After patient discontinued treatment for several weeks, subsequent putative recurrent post-acute symptoms of Covid-19 such as malaise, myalgia, and shortness of breath appeared.

SARS-COV-2 [4] = assay: Treatment of a patient with presumptive Covid-19 (case report); format: in vivo, human
Text: A septuagenarian person experienced sudden frightening onset of severe headache, marked nausea and vomiting, pharyngitis, severe upper respiratory congestion, fever, chills, myalgia, weakness, malaise, and mild to moderate pulmonary congestion. O2 saturation=96%. Patient had been taking Tempol off-and-on for years for cancer prophylaxis and for its possible antiaging activity, as well as some miscellaneous actions such as treatment of periodontitis and osteoarthritis. But, concerned that it would interfere with their activity, they had stopped Tempol about 6 weeks before receiving influenza (Fluvax) and Zoster (Zostavax) immunizations. The presumptive-diagnosis was “Covid-19”, possibly from a medically-related exposure.
Treatment: Nausea and vomiting continued without respite for several hours. Anti-nausea tablets were twice regurgitated intact. Accordingly, treatment was initiated with 30 mg of Tempol PO as the hydroxylamine in a 6% water solution containing 90 mg vitamin-C. Patient kept this down. Along with Tempol-zinc gargles for pharyngitis, intranasal treatment was then initiated with a medication-soaked cotton swab and insufflation, repeated approximately q 6 h as symptoms returned. This was followed by similar doses of Tempol-H three and six hours later, repeated 2-3 times a day, PO for the next ten days. Subsequent intranasal treatment was also repeated 1-3 times a day for 10 days, as needed, titrating to relief of oropharyngeal symptoms as they recurred. On days 2-3, treatment was briefly initiated with hydroxychloroquine, zinc, doxycycline, ivermectin, and famotidine, then withdrawn.

[5] = biological target: T1, SARS-COV-2 replicase (RNA-Dependent RNA polymerase) (Severe acute respiratory syndrome coronavirus 2, UniProt P0DTD1); conditions: by oxidizing iron-sulfur centers; cited from earlier work
T1 construct: SARS-COV-2 replicase (RNA-Dependent RNA polymerase)

SARS-COV-2 [6] = conditions: potentially physiological Tempol concentrations; cited from earlier work

CCC(CC)COC(=O)[C@H](C)N[P@](=O)(OC[C@H]1O[C@@](C#N)(c2ccc3c(N)ncnn23)[C@H](O)[C@@H]1O)Oc1ccccc1 [Remdisivir]
efficacy of systemic treatment of Covid-19 (SARS-COV-2 [1]): ineffective or only marginally-effective

CC1(C)CC(O)CC(C)(C)N1[O] [Tempol, 4-hydroxy-TEMPO]
murine viral encephalomyelitis [2]: ameliorates
development of coronavirus disease after heavy exposure (SARS-COV-2 [3]): did not develop clinically-significant coronavirus disease
PCR for SARS-COV-2 RNA (SARS-COV-2 [4]; day 10): negative
overall symptoms (SARS-COV-2 [4]; days 8-9, excepting slight malaise): essentially asymptomatic
recurrent post-acute symptoms of Covid-19 (malaise, myalgia, shortness of breath) (SARS-COV-2 [4]; further treatment as above plus lung inhalation of 0.1 ml of 6% Tempol or Tempol-H solution): responded reversibly
efficacy of Tempol itself (non-reduced form) (SARS-COV-2 [4]; same doses as Tempol-H): effective at the same doses
effect on replicase enzyme [5]: inactivates this key enzyme
viral replication in vitro (SARS-COV-2 [6]): markedly inhibits viral replication

CC1(C)CC(O)CC(C)(C)N1O [Tempol-H]
pulmonary congestion (SARS-COV-2 [4]; after initiation of treatment): cleared somewhat
nasal congestion (SARS-COV-2 [4]; repeated intranasal treatment (soaked cotton swab and insufflation)): quickly reversibly-eased
events experienced by the patient during treatment (SARS-COV-2 [4]; that night and several subsequent ones): “vivid dreaming”
headache (SARS-COV-2 [4]; within one to two hours of initiation of treatment): eased significantly

CCN(CCO)CCCC(C)Nc1ccnc2cc(Cl)ccc12 (centres unmarked) [hydroxychloroquine]
efficacy of systemic treatment of Covid-19 (SARS-COV-2 [1]): ineffective or only marginally-effective
